Consider 17 compounds from patent US20260325533A1, “CDK INHIBITOR COMPOUNDS” (ALEKSIA THERAPEUTICS, INC., priority 2023, published 2026).

The structures appear in SMILES notation. Where two headings read alike, the source gives them in different places. A value given as a limit tells only on which side of the number the result lay.

What all share (assay type): biochemical
One test addresses CDK4/CCND3 (Homo sapiens, UniProt P11802). The test is described as follows: CDK4 homogeneous time-resolved fluorescence (HTRF) kinase assay. Conditions: CDK4/CCND. The method in brief: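 Inhibition of CDK4/CCND3 (1.5 nM) was measured at high ATP (1 mM) using 50 nM ULight-labelled 4E-BP1 Thr37/46 peptide; detection used 2 nM europium anti-phospho antibody after EDTA quench. IC50 values came from 11-point half-log titrations typically starting at 10 μM.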
In general terms: TR-FRET usually uses a lanthanide donor and a delayed reading to cut background.

In the next test the target is CDK2/CCNE1 (Homo sapiens, UniProt P24941). Nature of the test: CDK2 homogeneous time-resolved fluorescence (HTRF) kinase assay. Conditions: CDK2/CCNE. The method in brief:
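3 nM CDK2/CCNE1 was preincubated with compound for 20 min at 23 °C in HEPES buffer (pH not stated), then reacted 60 min with 1 mM ATP and 50 nM ULight-4E-BP1 (Thr37/46) peptide. After EDTA stop, Eu-anti-phospho-4E-BP1 antibody (2 nM) was added for 60 min and TR-FRET read at 665 nm.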

A further test has as its target CDK6/CCND1 (Homo sapiens, UniProt Q00534). Nature of the test: CDK6 homogeneous time-resolved fluorescence (HTRF) kinase assay. The conditions noted are these: CDK6/CCND, 1 mM ATP. The method in brief:
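1 nM enzyme, 1 mM ATP, 50 nM ULight-4E-BP1 (Thr37/46) peptide, 1% DMSO; 20 min compound preincubation, 60 min reaction, 23 °C. EDTA stop, 2 nM Eu-anti-phospho-4E-BP1 antibody 60 min. TR-FRET 665 nm (or 665/615 ratio); IC50 from 11-point half-log titration, top 10 μM.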

In the next test the target is CDK1/CCNB1 (Homo sapiens, UniProt P06493). The test is described as follows: CDK1 homogeneous time-resolved fluorescence (HTRF) kinase assay. Conditions: CDK1/CCNB. In a few lines: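 0.5 nM CDK1/CCNB1 was preincubated 20 min at 23 °C with compound in HEPES pH-unspecified buffer (MgCl2, EGTA, DTT, Tween 20), then reacted 60 min with 1 mM ATP and 50 nM ULight-4E-BP1 (Thr37/46) peptide. EDTA-stopped reactions were detected with 2 nM Eu-anti-phospho antibody; IC50 from 11-point half-log titrations.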

Setting [1] is: >250 nM, read-out: CDK4/CCND IC50, >250 nM.
Where [2] appears, read: <25 nM, read-out: CDK2/CCNE IC50, <25 nM.
Setting [3] is: >250 nM, read-out: CDK6/CCND IC50, >250 nM.
Setting [4] is: >250 nM, read-out: CDK1/CCNB IC50 >250 nM.
Setting [5] is: 25-250 nM, read-out: CDK4/CCND IC50, 25-250 nM.
Setting [6] is: 25-250 nM, read-out: CDK6/CCND IC50, 25-250 nM.
Setting [7] is: 25-250 nM, read-out: CDK1/CCNB IC50, 25-250 nM.
Setting [8] is: 25-250 nM, read-out: CDK2/CCNE IC50, 25-250 nM.

CDK1/CCNB1, sequence (P06493 whole entry): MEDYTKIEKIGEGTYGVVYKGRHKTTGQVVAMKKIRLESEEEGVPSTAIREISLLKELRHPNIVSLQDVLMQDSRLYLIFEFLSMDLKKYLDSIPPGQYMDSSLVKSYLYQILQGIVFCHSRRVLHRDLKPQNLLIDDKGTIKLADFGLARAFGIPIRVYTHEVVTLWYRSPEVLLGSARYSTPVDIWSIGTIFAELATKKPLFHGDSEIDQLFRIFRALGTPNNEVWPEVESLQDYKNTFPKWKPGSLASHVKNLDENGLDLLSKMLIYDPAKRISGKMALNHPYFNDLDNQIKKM
CDK1/CCNB1, sequence (P14635 whole entry partner): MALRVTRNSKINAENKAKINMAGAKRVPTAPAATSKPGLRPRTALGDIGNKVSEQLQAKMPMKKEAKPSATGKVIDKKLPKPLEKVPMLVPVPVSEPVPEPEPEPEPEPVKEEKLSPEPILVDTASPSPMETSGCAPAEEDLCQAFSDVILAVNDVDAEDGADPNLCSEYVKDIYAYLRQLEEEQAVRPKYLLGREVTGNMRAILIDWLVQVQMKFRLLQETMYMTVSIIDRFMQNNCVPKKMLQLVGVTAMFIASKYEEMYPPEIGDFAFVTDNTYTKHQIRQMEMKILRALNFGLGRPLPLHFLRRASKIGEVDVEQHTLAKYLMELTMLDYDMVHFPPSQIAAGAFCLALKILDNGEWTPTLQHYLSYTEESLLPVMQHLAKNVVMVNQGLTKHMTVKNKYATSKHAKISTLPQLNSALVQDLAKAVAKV
CDK6/CCND1, sequence (Q00534 whole entry): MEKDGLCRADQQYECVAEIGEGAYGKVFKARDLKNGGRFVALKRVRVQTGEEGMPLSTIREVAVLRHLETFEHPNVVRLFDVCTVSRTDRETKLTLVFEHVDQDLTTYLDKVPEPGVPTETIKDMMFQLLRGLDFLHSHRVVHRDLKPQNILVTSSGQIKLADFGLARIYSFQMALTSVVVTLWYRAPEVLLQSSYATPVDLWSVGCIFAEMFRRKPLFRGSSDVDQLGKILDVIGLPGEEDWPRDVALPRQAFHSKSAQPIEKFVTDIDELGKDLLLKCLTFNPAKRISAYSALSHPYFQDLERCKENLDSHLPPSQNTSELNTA
CDK6/CCND1, sequence (P24385 whole entry partner): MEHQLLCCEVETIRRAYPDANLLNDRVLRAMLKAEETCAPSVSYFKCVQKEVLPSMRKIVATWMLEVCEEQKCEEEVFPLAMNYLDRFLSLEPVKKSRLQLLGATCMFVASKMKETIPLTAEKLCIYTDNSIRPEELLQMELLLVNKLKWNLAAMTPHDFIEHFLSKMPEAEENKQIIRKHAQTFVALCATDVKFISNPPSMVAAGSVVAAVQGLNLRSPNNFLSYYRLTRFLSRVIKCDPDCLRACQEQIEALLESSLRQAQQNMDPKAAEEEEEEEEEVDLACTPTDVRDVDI
CDK4/CCND3, sequence (P11802 whole entry): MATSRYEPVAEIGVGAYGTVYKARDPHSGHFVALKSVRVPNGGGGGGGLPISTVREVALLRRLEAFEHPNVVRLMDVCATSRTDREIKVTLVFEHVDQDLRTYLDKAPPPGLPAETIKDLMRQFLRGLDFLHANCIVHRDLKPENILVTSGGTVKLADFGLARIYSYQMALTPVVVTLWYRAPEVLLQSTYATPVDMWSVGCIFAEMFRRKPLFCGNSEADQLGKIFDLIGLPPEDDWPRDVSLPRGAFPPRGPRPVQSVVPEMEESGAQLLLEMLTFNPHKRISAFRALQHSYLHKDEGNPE
CDK4/CCND3, sequence (P30281 whole entry partner): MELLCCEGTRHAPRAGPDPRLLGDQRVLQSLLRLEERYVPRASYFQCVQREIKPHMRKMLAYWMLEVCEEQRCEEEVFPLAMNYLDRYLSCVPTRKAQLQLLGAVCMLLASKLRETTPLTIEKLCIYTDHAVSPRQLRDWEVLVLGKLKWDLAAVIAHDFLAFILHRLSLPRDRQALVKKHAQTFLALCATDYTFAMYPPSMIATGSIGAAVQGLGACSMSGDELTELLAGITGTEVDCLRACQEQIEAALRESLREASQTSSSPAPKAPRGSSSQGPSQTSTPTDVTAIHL

Consider `Cc1c(-c2nccc3cnc(Nc4ccc(NS(=O)(=O)c5cccc6nonc56)cc4)cc23)ccc2c1cnn2CC(C)(C)O` [Ex 821, N-(4-((5-(1-(2-hydroxy-2-methylpropyl)-4-methyl-1H-indazol-5-yl)-2,6-naphthyridin-3-yl)amino)phenyl)benzo[c][1,2,5]oxadiazole-4-sulfonamide], for which the IC50 at CDK4/CCND3 (setting [1]) was greater than 250 nM; on CDK2/CCNE1 (setting [2]), less than 25 nM; at CDK6/CCND1 (setting [3]), greater than 250 nM; at CDK1/CCNB1 (setting [4]) it was greater than 250 nM.
`Cc1c(-c2nccc3cnc(Nc4ccc(NS(=O)(=O)c5cncc(Cl)c5)cc4)cc23)ccc2c1cnn2CC(C)(C)O` [Ex 822, 5-chloro-N-(4-((5-(1-(2-hydroxy-2-methylpropyl)-4-methyl-1H-indazol-5-yl)-2,6-naphthyridin-3-yl)amino)phenyl)pyridine-3-sulfonamide]: the IC50 at CDK4/CCND3 (setting [1]) is greater than 250 nM; at CDK2/CCNE1 (setting [2]), less than 25 nM; on CDK6/CCND1 (setting [3]) it was greater than 250 nM; on CDK1/CCNB1 (setting [4]) it was greater than 250 nM.
Turning to `Cc1ccc(S(=O)(=O)Nc2ccc(Nc3cc4c(-c5ccc6c(cnn6CC(C)(C)O)c5C)nccc4cn3)cc2)cn1` [Ex 823, N-(4-((5-(1-(2-hydroxy-2-methylpropyl)-4-methyl-1H-indazol-5-yl)-2,6-naphthyridin-3-yl)amino)phenyl)-6-methylpyridine-3-sulfonamide], the IC50 is 25 to 250 nM at CDK4/CCND3 (setting [5]), less than 25 nM at CDK2/CCNE1 (setting [2]), 25 to 250 nM on CDK6/CCND1 (setting [6]) and 25 to 250 nM on CDK1/CCNB1 (setting [7]).
`Cc1c(-c2nccc3cnc(Nc4ccc(NS(=O)(=O)c5cnn(-c6ccccn6)c5)cc4)cc23)ccc2c1cnn2CC(C)(C)O` [Ex 824, N-(4-((5-(1-(2-hydroxy-2-methylpropyl)-4-methyl-1H-indazol-5-yl)-2,6-naphthyridin-3-yl)amino)phenyl)-1-(pyridin-2-yl)-1H-pyrazole-4-sulfonamide]: the IC50 on CDK4/CCND3 (setting [1]) was greater than 250 nM; on CDK2/CCNE1 (setting [8]), 25 to 250 nM; at CDK6/CCND1 (setting [3]), greater than 250 nM; at CDK1/CCNB1 (setting [4]), greater than 250 nM.
Consider `Cc1c(-c2nccc3cnc(Nc4ccc(NS(=O)(=O)c5ccoc5)cc4)cc23)ccc2c1cnn2CC(C)(C)O` [Ex 825, N-(4-((5-(1-(2-hydroxy-2-methylpropyl)-4-methyl-1H-indazol-5-yl)-2,6-naphthyridin-3-yl)amino)phenyl)furan-3-sulfonamide], for which the IC50 was 25 to 250 nM on CDK4/CCND3 (setting [5]), less than 25 nM on CDK2/CCNE1 (setting [2]), 25 to 250 nM at CDK6/CCND1 (setting [6]) and 25 to 250 nM on CDK1/CCNB1 (setting [7]).
Consider `Cc1nn(-c2ccccc2)c(C)c1S(=O)(=O)Nc1ccc(Nc2cc3c(-c4ccc5c(cnn5CC(C)(C)O)c4C)nccc3cn2)cc1` [Ex 826, N-(4-((5-(1-(2-hydroxy-2-methylpropyl)-4-methyl-1H-indazol-5-yl)-2,6-naphthyridin-3-yl)amino)phenyl)-3,5-dimethyl-1-phenyl-1H-pyrazole-4-sulfonamide], for which the IC50 was greater than 250 nM on CDK4/CCND3 (setting [1]); greater than 250 nM at CDK2/CCNE1 (>250 nM, read-out: CDK2/CCNE IC50, >250 nM); greater than 250 nM at CDK6/CCND1 (setting [3]); greater than 250 nM on CDK1/CCNB1 (setting [4]).
As to `Cc1c(-c2nccc3cnc(Nc4ccc(NS(=O)(=O)c5ccc(Cl)s5)cc4)cc23)ccc2c1cnn2CC(C)(C)O` [Ex 827, 5-chloro-N-(4-((5-(1-(2-hydroxy-2-methylpropyl)-4-methyl-1H-indazol-5-yl)-2,6-naphthyridin-3-yl)amino)phenyl)thiophene-2-sulfonamide], the IC50 on CDK4/CCND3 (setting [1]) is greater than 250 nM; on CDK2/CCNE1 (setting [8]), 25 to 250 nM; on CDK6/CCND1 (setting [3]), greater than 250 nM; at CDK1/CCNB1 (setting [4]), greater than 250 nM.
With `Cc1c(-c2nccc3cnc(Nc4ccc(NS(=O)(=O)c5cn(C)cn5)cc4)cc23)ccc2c1cnn2CC(C)(C)O` [Ex 828, N-(4-((5-(1-(2-hydroxy-2-methylpropyl)-4-methyl-1H-indazol-5-yl)-2,6-naphthyridin-3-yl)amino)phenyl)-1-methyl-1H-imidazole-4-sulfonamide], the IC50 on CDK4/CCND3 (setting [5]) was 25 to 250 nM; on CDK2/CCNE1 (setting [2]) it was less than 25 nM; at CDK6/CCND1 (setting [6]) it was 25 to 250 nM; on CDK1/CCNB1 (setting [7]) it was 25 to 250 nM.
Turning to `CCc1ccc(S(=O)(=O)Nc2ccc(Nc3cc4c(-c5ccc6c(cnn6CC(C)(C)O)c5C)nccc4cn3)cc2)s1` [Ex 829, 5-ethyl-N-(4-((5-(1-(2-hydroxy-2-methylpropyl)-4-methyl-1H-indazol-5-yl)-2,6-naphthyridin-3-yl)amino)phenyl)thiophene-2-sulfonamide], the IC50 was greater than 250 nM on CDK4/CCND3 (setting [1]), less than 25 nM on CDK2/CCNE1 (setting [2]), greater than 250 nM on CDK6/CCND1 (setting [3]) and greater than 250 nM on CDK1/CCNB1 (setting [4]).
With `Cc1nn(C)c(C)c1S(=O)(=O)Nc1ccc(Nc2cc3c(-c4ccc5c(cnn5CC(C)(C)O)c4C)nccc3cn2)cc1` [Ex 830, N-(4-((5-(1-(2-hydroxy-2-methylpropyl)-4-methyl-1H-indazol-5-yl)-2,6-naphthyridin-3-yl)amino)phenyl)-1,3,5-trimethyl-1H-pyrazole-4-sulfonamide], the IC50 was greater than 250 nM at CDK4/CCND3 (setting [1]), less than 25 nM at CDK2/CCNE1 (setting [2]), greater than 250 nM at CDK6/CCND1 (setting [3]) and greater than 250 nM at CDK1/CCNB1 (setting [4]).
As for `Cc1c(-c2nccc3cnc(Nc4ccc(NS(=O)(=O)c5ccsc5)cc4)cc23)ccc2c1cnn2CC(C)(C)O` [Ex 831, N-(4-((5-(1-(2-hydroxy-2-methylpropyl)-4-methyl-1H-indazol-5-yl)-2,6-naphthyridin-3-yl)amino)phenyl)thiophene-3-sulfonamide], the IC50 was greater than 250 nM on CDK4/CCND3 (setting [1]), less than 25 nM at CDK2/CCNE1 (setting [2]), greater than 250 nM at CDK6/CCND1 (setting [3]) and greater than 250 nM at CDK1/CCNB1 (setting [4]).
On to `Cc1c(-c2nccc3cnc(Nc4ccc(NS(=O)(=O)c5ccn(C)n5)cc4)cc23)ccc2c1cnn2CC(C)(C)O` [Ex 832, N-(4-((5-(1-(2-hydroxy-2-methylpropyl)-4-methyl-1H-indazol-5-yl)-2,6-naphthyridin-3-yl)amino)phenyl)-1-methyl-1H-pyrazole-3-sulfonamide], for which the IC50 on CDK4/CCND3 (setting [5]) is 25 to 250 nM; at CDK2/CCNE1 (setting [2]), less than 25 nM; on CDK6/CCND1 (setting [6]) it was 25 to 250 nM; on CDK1/CCNB1 (setting [7]) it was 25 to 250 nM.
For the compound `Cc1oncc1S(=O)(=O)Nc1ccc(Nc2cc3c(-c4ccc5c(cnn5CC(C)(C)O)c4C)nccc3cn2)cc1` [Ex 833, N-(4-((5-(1-(2-hydroxy-2-methylpropyl)-4-methyl-1H-indazol-5-yl)-2,6-naphthyridin-3-yl)amino)phenyl)-5-methylisoxazole-4-sulfonamide], the IC50 at CDK4/CCND3 (setting [1]) is greater than 250 nM; at CDK2/CCNE1 (setting [8]) it was 25 to 250 nM; on CDK6/CCND1 (setting [3]), greater than 250 nM; at CDK1/CCNB1 (setting [4]), greater than 250 nM.
`Cc1c(-c2nccc3cnc(Nc4ccc(NS(=O)(=O)c5cccs5)cc4)cc23)ccc2c1cnn2CC(C)(C)O` [Ex 834, N-(4-((5-(1-(2-hydroxy-2-methylpropyl)-4-methyl-1H-indazol-5-yl)-2,6-naphthyridin-3-yl)amino)phenyl)thiophene-2-sulfonamide]: the IC50 is greater than 250 nM on CDK4/CCND3 (setting [1]), less than 25 nM at CDK2/CCNE1 (setting [2]), greater than 250 nM on CDK6/CCND1 (setting [3]) and greater than 250 nM on CDK1/CCNB1 (setting [4]).
Take `Cc1c(-c2nccc3cnc(Nc4ccc(NS(=O)(=O)c5cnn(C)c5)cc4)cc23)ccc2c1cnn2CC(C)(C)O` [Ex 835, N-(4-((5-(1-(2-hydroxy-2-methylpropyl)-4-methyl-1H-indazol-5-yl)-2,6-naphthyridin-3-yl)amino)phenyl)-1-methyl-1H-pyrazole-4-sulfonamide]: the IC50 at CDK4/CCND3 (setting [5]) is 25 to 250 nM; on CDK2/CCNE1 (setting [2]), less than 25 nM; on CDK6/CCND1 (setting [6]) it was 25 to 250 nM; at CDK1/CCNB1 (setting [7]), 25 to 250 nM.
For `Cc1cc(Nc2cc3c(-c4ccc5c(cnn5CC(C)(C)O)c4C)nccc3cn2)ccc1S(C)(=O)=O` [Ex 836, 2-methyl-1-(4-methyl-5-(7-((3-methyl-4-(methylsulfonyl)phenyl)amino)-2,6-naphthyridin-1-yl)-1H-indazol-1-yl)propan-2-ol], the IC50 at CDK4/CCND3 (setting [1]) is greater than 250 nM; on CDK2/CCNE1 (setting [2]) it was less than 25 nM; at CDK6/CCND1 (setting [3]), greater than 250 nM; on CDK1/CCNB1 (setting [4]) it was greater than 250 nM.
Take `COc1cc(Nc2cc3c(-c4ccc5c(cnn5CC(C)(C)O)c4C)nccc3cn2)ccc1S(C)(=O)=O` [Ex 837, 1-(5-(7-((3-methoxy-4-(methylsulfonyl)phenyl)amino)-2,6-naphthyridin-1-yl)-4-methyl-1H-indazol-1-yl)-2-methylpropan-2-ol]: the IC50 was greater than 250 nM at CDK4/CCND3 (setting [1]), 25 to 250 nM on CDK2/CCNE1 (setting [8]), greater than 250 nM at CDK6/CCND1 (setting [3]) and greater than 250 nM at CDK1/CCNB1 (setting [4]).
